Measured values published in ChEMBL document CHEMBL1201862, “PubChem BioAssay data set” (2004).
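Exposure lasted 48 hours, with cells grown in 96-well plates and compounds tested at five concentrations. At the GI50, growth is halved.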 Calls of active or inactive are those of the source. Cut-off read from the data, not from the text of the source: active = GI50 up to about 1.1 µM and inactive = higher.

Experiments:
Assay in all cases: inhibition of tumour cell growth, NCI panel, 48 h
HOP-62 = system: HOP-62
SF-539 = system: SF-539
HT-29 = system: HT-29
SW-620 = system: SW-620
SK-MEL-2 = system: SK-MEL-2
MDA-MB-231 = system: MDA-MB-231
MCF7 = system: MCF7
SF-295 = system: SF-295
MDA-MB-435 = system: MDA-MB-435
K562 = system: K562
PC-3 = system: PC-3
HCC 2998 = system: HCC 2998
OVCAR-4 = system: OVCAR-4
786-0 = system: 786-0
SNB-19 = system: SNB-19
T47D = system: T47D
SNB-75 = system: SNB-75
COLO 205 = system: COLO 205
Malme-3M = system: Malme-3M
MOLT-4 = system: MOLT-4

Row | SMILES | GI50 (HOP-62) | GI50 (SF-539) | GI50 (HT-29) | GI50 (SW-620) | GI50 (SK-MEL-2) | GI50 (MDA-MB-231) | GI50 (MCF7) | GI50 (SF-295) | GI50 (MDA-MB-435) | GI50 (K562) | GI50 (PC-3) | GI50 (HCC 2998) | GI50 (OVCAR-4) | GI50 (786-0) | GI50 (SNB-19) | GI50 (T47D) | GI50 (SNB-75) | GI50 (COLO 205) | GI50 (Malme-3M) | GI50 (MOLT-4)
1 | CCOC(=O)C(C)c1nc2cc3cccnc3c(Cl)c2[nH]c1=O (configuration not stated) | > 100 µM (inactive) | > 100 µM (inactive) | > 100 µM (inactive) | > 100 µM (inactive) | 86.9 µM (inactive) | 82 µM (inactive) | > 100 µM (inactive) | > 100 µM (inactive) | > 100 µM (inactive) | > 100 µM (inactive) | > 100 µM (inactive) | 85.3 µM (inactive) | > 100 µM (inactive) | > 100 µM (inactive) | > 100 µM (inactive) | 23.4 µM (inactive) | > 100 µM (inactive) | > 100 µM (inactive) |  | 
2 | NC(Cc1ccccc1)C(=O)NC(Cc1ccccc1)NC(=O)C(Cc1c[nH]c2ccccc12)C(=O)O (configuration not stated) | > 100 µM (inactive) | > 100 µM (inactive) | > 100 µM (inactive) | > 100 µM (inactive) | 9.35 µM (inactive) | > 100 µM (inactive) | > 100 µM (inactive) | > 100 µM (inactive) | > 100 µM (inactive) |  | > 100 µM (inactive) | > 100 µM (inactive) | > 100 µM (inactive) | > 100 µM (inactive) | > 100 µM (inactive) | > 100 µM (inactive) | > 100 µM (inactive) | > 100 µM (inactive) | > 100 µM (inactive) | 
3 | O=C1Nc2ccccc2/C1=N/Nc1nc(-c2ccc([N+](=O)[O-])cc2)cs1 | > 100 µM (inactive) | 17.1 µM (inactive) | 22.9 µM (inactive) | 32.7 µM (inactive) | 26.9 µM (inactive) | 40.9 µM (inactive) | 35.3 µM (inactive) | 24.1 µM (inactive) | 24.7 µM (inactive) |  | 24 µM (inactive) | 21.9 µM (inactive) | 18.1 µM (inactive) | 19.4 µM (inactive) | 44.1 µM (inactive) | 29.1 µM (inactive) | 7.45 µM (inactive) | 44.2 µM (inactive) |  | 51.9 µM (inactive)
4 | S=c1[nH]n2c(CCCCCCCCc3nnc4sc(=S)[nH]n34)nnc2s1 | > 100 µM (inactive) | > 100 µM (inactive) | > 100 µM (inactive) | > 100 µM (inactive) | > 100 µM (inactive) | > 100 µM (inactive) | > 100 µM (inactive) | > 100 µM (inactive) | > 100 µM (inactive) | > 100 µM (inactive) | > 100 µM (inactive) | > 100 µM (inactive) | > 100 µM (inactive) | > 100 µM (inactive) | > 100 µM (inactive) | > 100 µM (inactive) | > 100 µM (inactive) | > 100 µM (inactive) | > 100 µM (inactive) | > 100 µM (inactive)
5 | O=Cc1ccc2c(c1)CC1(Cc3ccccc3C1)C2 | 16.1 µM (inactive) | 17.3 µM (inactive) | 23.4 µM (inactive) |  | 11.2 µM (inactive) | 13.5 µM (inactive) | 31 µM (inactive) | 31.3 µM (inactive) | 16.7 µM (inactive) | 22.1 µM (inactive) | 25.9 µM (inactive) | 59 µM (inactive) | 17.6 µM (inactive) | 14.2 µM (inactive) |  | 25.9 µM (inactive) |  | 21.8 µM (inactive) | 18.2 µM (inactive) | 18.4 µM (inactive)
6 | Cc1ccc2c(c1)C1(C)OC(C=CC1=O)O2 (configuration not stated) | 3.43 µM (inactive) | 0.488 µM (active) | 0.267 µM (active) | 0.237 µM (active) | 1.77 µM (inactive) | 0.564 µM (active) | 1.27 µM (inactive) | 2.79 µM (inactive) | 0.182 µM (active) | 0.147 µM (active) | 0.499 µM (active) | 2.84 µM (inactive) | 0.774 µM (active) | 0.261 µM (active) | 2.75 µM (inactive) | 0.705 µM (active) | 1.68 µM (inactive) | 0.384 µM (active) | 0.341 µM (active) | 0.225 µM (active)
7 | O=C1CN(c2cccc(C(F)(F)F)c2)C(=O)CN1NCNN1CC(=O)N(c2cccc(C(F)(F)F)c2)CC1=O | > 100 µM (inactive) | > 100 µM (inactive) | > 100 µM (inactive) | > 100 µM (inactive) |  | > 100 µM (inactive) | > 100 µM (inactive) | > 100 µM (inactive) | > 100 µM (inactive) | > 100 µM (inactive) | > 100 µM (inactive) | > 100 µM (inactive) |  | > 100 µM (inactive) | > 100 µM (inactive) | > 100 µM (inactive) | > 100 µM (inactive) | > 100 µM (inactive) |  | > 100 µM (inactive)
8 | Cc1ccc(NC(=O)c2cc(S(=O)(=O)Nc3n[nH]c(=O)n3-c3ccccc3)c(S)cc2Cl)cc1 |  | > 100 µM (inactive) | > 100 µM (inactive) | > 100 µM (inactive) | > 100 µM (inactive) | > 100 µM (inactive) | > 100 µM (inactive) |  | > 100 µM (inactive) | > 100 µM (inactive) | > 100 µM (inactive) | > 100 µM (inactive) | > 100 µM (inactive) | > 100 µM (inactive) | > 100 µM (inactive) | > 100 µM (inactive) | > 100 µM (inactive) | > 100 µM (inactive) | > 100 µM (inactive) | > 100 µM (inactive)
9 | Cc1ccc(Cc2n[nH]c(=O)n2-c2ccccc2)cc1 |  | > 100 µM (inactive) | > 100 µM (inactive) | > 100 µM (inactive) | 73.1 µM (inactive) | > 100 µM (inactive) | > 100 µM (inactive) | > 100 µM (inactive) | > 100 µM (inactive) | > 100 µM (inactive) | > 100 µM (inactive) | > 100 µM (inactive) |  | > 100 µM (inactive) | > 100 µM (inactive) | 0.652 µM (active) | > 100 µM (inactive) |  | > 100 µM (inactive) | > 100 µM (inactive)
10 | ClCCc1ccccc1CC1=NCCc2ccccc21 | 34.8 µM (inactive) | 38.8 µM (inactive) | 17.4 µM (inactive) | 29.9 µM (inactive) | 18.5 µM (inactive) | 38.1 µM (inactive) | 27.7 µM (inactive) | 39.3 µM (inactive) | 28.8 µM (inactive) | 28.4 µM (inactive) | 30.5 µM (inactive) | 25.1 µM (inactive) | 43.5 µM (inactive) | 42.6 µM (inactive) | 18.1 µM (inactive) | 21.9 µM (inactive) | 22 µM (inactive) | 24 µM (inactive) |  | 26.9 µM (inactive)
11 | O=C(OCCN1CCCCC1)C(c1ccccc1)C1(O)CCSCC1 (configuration not stated) | > 100 µM (inactive) | > 100 µM (inactive) | > 100 µM (inactive) | > 100 µM (inactive) | > 100 µM (inactive) | > 100 µM (inactive) | > 100 µM (inactive) | > 100 µM (inactive) | > 100 µM (inactive) | > 100 µM (inactive) | > 100 µM (inactive) | > 100 µM (inactive) | > 100 µM (inactive) | > 100 µM (inactive) | > 100 µM (inactive) | > 100 µM (inactive) | 83.4 µM (inactive) | > 100 µM (inactive) | > 100 µM (inactive) | > 100 µM (inactive)
12 | O=c1c(Cc2ccc(Cl)cc2)nnc2sc(-c3ccc(-c4ccc(F)c(Cl)c4)o3)nn12 | > 100 µM (inactive) | > 100 µM (inactive) | 50.5 µM (inactive) | 54.5 µM (inactive) | 51.4 µM (inactive) | > 100 µM (inactive) | 32.7 µM (inactive) | 88.9 µM (inactive) | 82 µM (inactive) | 37.6 µM (inactive) | 57.1 µM (inactive) | > 100 µM (inactive) | 42.1 µM (inactive) | 71 µM (inactive) | > 100 µM (inactive) | 80.2 µM (inactive) |  | 57.3 µM (inactive) | > 100 µM (inactive) | 43.7 µM (inactive)
13 | CN(C)c1ncc(-c2c[nH]c3ccccc23)nc1-c1c[nH]c2ccccc12 | 8.18 µM (inactive) | 4.21 µM (inactive) | 2.19 µM (inactive) | 3.38 µM (inactive) | 3.83 µM (inactive) | 2.07 µM (inactive) | 2.3 µM (inactive) | 2.33 µM (inactive) | 3.31 µM (inactive) | 2.8 µM (inactive) | 3.69 µM (inactive) | 1.67 µM (inactive) | 5.32 µM (inactive) | 2.12 µM (inactive) | 4.12 µM (inactive) | 3.23 µM (inactive) | 1.15 µM (inactive) | 2.3 µM (inactive) |  | 3.47 µM (inactive)
14 | COC(=O)n1c(=O)n(-c2ccccc2)c(=O)n1C(=O)OC |  | > 100 µM (inactive) | > 100 µM (inactive) | > 100 µM (inactive) | > 100 µM (inactive) | > 100 µM (inactive) | > 100 µM (inactive) |  | > 100 µM (inactive) | > 100 µM (inactive) | > 100 µM (inactive) | > 100 µM (inactive) | > 100 µM (inactive) | > 100 µM (inactive) | > 100 µM (inactive) | > 100 µM (inactive) | 51.2 µM (inactive) | > 100 µM (inactive) | > 100 µM (inactive) | > 100 µM (inactive)
15 | O=C1c2cccc(O)c2C(=O)c2c(OC3OC(CO)C(O)C(O)C3O)cccc21 (configuration not stated) | 46.3 µM (inactive) | 25.5 µM (inactive) | 33.3 µM (inactive) | 16.9 µM (inactive) | 46.8 µM (inactive) | 21.3 µM (inactive) | 30.1 µM (inactive) | 48.5 µM (inactive) | 18.2 µM (inactive) | 48 µM (inactive) | 24.5 µM (inactive) | 24.8 µM (inactive) | 16.1 µM (inactive) | 22.2 µM (inactive) | 33.7 µM (inactive) | 20.4 µM (inactive) | 24 µM (inactive) | 19.4 µM (inactive) | 6.12 µM (inactive) | 
